Consider ten compounds from US20220273689A1, “POTENTIATION OF ANTIVIRAL NUCLEOBASES AS RNA VIRUS THERAPY” (REGENTS OF THE UNIVERSITY OF MINNESOTA, priority 2019, published 2022).

One series concerns DENV 2. As to the kind of experiment: Potentiation in replication-competent DENV assay using Huh-7 cells (plaque assay, MacSynergy II). The following applies: for synergy/potentiation with 6-MMPR for reduction in DENV replication: Huh7 cells, 0.1 μM 6-MMPR, infectious virus titer (FIG. 9); for potentiation/synergy with 6-MMPR of anti-DENV activity: Huh-7 cells, matrix of 6-MMPR and T-1105, infectious virus titer (FIG. 6).

The nature of series [1]: Safety of the combination in DENV mouse model. Type of series: in vivo. The following applies: health of the mice / body weight. The protocol: The mice were treated with Vehicle, the combination T-1105 (3a)+6-MMPR, 1105 only, and PBS. Viral genomes were detected and quantitated by RT-qPCR at 2 or 4 days post infection. […] These studies help predict a safe dose and timing of administration of the combination of favipiravir (T705) and 6-MMPR to treat RNA virus infections, such as SARS-CoV-2.

Another series concerns IAV. Put plainly: Protection of Huh7 cells from IAV-induced cytopathic effects (MTS). Type of series: cell-based, influenza A virus.
Another series concerns DENV replicon. Type of series: cell-based, Dengue virus (DENV). The following applies: for antiviral activity of nucleobase alone: 0.6 μM nucleobase, without 6-MMPR; for antiviral (anti-replicon) activity when supplemented with 6-MMPR: nucleobase supplemented with 0.01 μM 6-MMPR.
A short description of series [2]: Cell viability assay (MTS) in DENV replicon cells. The following applies: hamster.
Series [3] has as its system DENV replicon cells (BHK). Put plainly: Cell viability assay (MTS) in DENV replicon cells. The following applies: for CC50: DENV replicon BHK cells, MTS, 72 h.
A further series has as its system HCoV-OC43. As to the kind of experiment: Potentiation against HCoV-OC43 in Huh7 cells. Type of series: cell-based, human betacoronavirus OC43. The following applies: HCoV-OC43, combination with 6-MMPR, MacSynergy; listed as favipiravir. The protocol:
HCoV-OC43. Huh7 cells were 12,500 Huh7 cells were seeded in a 96 well plate. Next day, the cells were inoculated with OC43 virus at a MOI (multiplicity of infection) of 0.5 for two hours. Next, the inoculum was removed and cells were treated with different combinations of 6MMPr and T-705 or remdesivir 1 μM (RDV) as positive control. Three wells per treatment were used. Cells were incubated for 5 days. Infected and treated cells were analyzed for cell viability by MTS and absorbance was measured at 490 nm.

The subject of series [4] is DENV-2 viral replicon. Put plainly: microbe, parasite or virus in culture. The following applies: Dengue virus, DENV2, BHK, 72 h.
The next series concerns ZIKV. As to the kind of experiment: Potentiation in replication-competent ZIKV titer reduction assay using Huh-7 cells. The following applies: 0.1 μM 6-MMPR, infectious virus titer.
For series [5], the system named is DENV-2 viral replicon. The following applies: for TTI, tissue culture therapeutic index (CC50/EC50): DENV replicon BHK cells.
The next series concerns DENV. As to the kind of experiment: DENV titer reduction assay in Huh-7 cells, dose-response. The following applies: Dengue virus. Type of series: cell-based.
[6] abbreviates: combination with 6-MMPR (AM28), MacSynergy II.

Each structure is given as a SMILES string. Entries after “also recorded” stand apart in the source; their conditions may differ. Where two headings read alike, the source gives them in different places.

Method for DENV 2: Huh7 cells were plated in each well of a 24 well plate (1×10^5/well). Twenty-four hours later, cells were inoculated with DENV 2 or ZIKV at a multiplicity of infection (MOI) of 0.05. Two hours post-inoculation, inoculum was retired and fresh medium containing treatment was added. Columns 1 to 6 were treated with increasing concentrations of 6-MMPR (0, 0.025, 0.05, 0.1, 0.2 and 0.4 μM). Rows A to D were treated with 0, 25, 50 and 100 μM of T-1105. Supernatants were collected after 72 hours post-infection and infectious virions were analyzed by plaque assay as extent of infectious virus production. For FIG. 5, Huh7 cells were inoculated with DENV or ZIKV and treated with different concentrations of T-1105 (0, 3, 9, 27, 51 or 243 μM), T-1106 (0, 6.7, 20, 60, 180 or 540 μM) and T-705 (same concentrations as T-1106) in combination with 0.1 μM AM28 or DMSO. After 72 hours post infection supernatants were collected and analyzed for viral yield by plaque assay.
Method for ZIKV: DENV and ZIKV. Huh7 cells were plated in each well of a 24 well plate (1×10^5/well). Twenty-four hours later, cells were inoculated with DENV 2 or ZIKV at a multiplicity of infection (MOI) of 0.05. Two hours post-inoculation, inoculum was retired and fresh medium containing treatment was added. Columns 1 to 6 were treated with increasing concentrations of 6-MMPR (0, 0.025, 0.05, 0.1, 0.2 and 0.4 μM). Rows A to D were treated with 0, 25, 50 and 100 μM of T-1105. Supernatants were collected after 72 hours post-infection and infectious virions were analyzed by plaque assay as extent of infectious virus production.

Consider `NC(=O)c1nc(F)cnc1O` [Compound 5a, 6-fluoro-3-hydroxypyrazine-2-carboxamide, reference compound], for which the figures for the “synergy/potentiation with 6-MMPR for reduction in DENV replication” value in the series on DENV 2 (listed as T-705) and in the series on DENV 2 (listed as favipiravir) were “synergistic effect” and “synergistic antiviral effect”, respectively. Also, the “safety of the combination with 6-MMPR” value in series [1] is given as “safe”. Also, in the series with IAV, the “synergy with 6-MMPR against IAV” value is on record as “synergistic antiviral effect; also recorded: clear synergy peak”. In addition, in the series with IAV (Huh7 cells, in combination with 6MMPR, listed as favipiravir), the “protection of cells from IAV-induced cytopathic effects (CPE)” value is “can protect cells; also recorded: protection of human cells from IAV-induced cell death”. Besides, in the series on DENV replicon, the “synergy with 6-MMPR for reduction in DENV replicon replication” value (from here on “synergy with 6-MMPR for reduction”) is given as “synergistic effect”. Besides, in [2], the cytotoxic concentration (CC50) at 72 h was greater than 665 µM. In series [3], this compound returned a CC50 greater than 1000 µM. In the series on HCoV-OC43, the “synergy with 6-MMPR in inhibiting production of infectious coronavirus particles” value is reported as “synergistic antiviral effect; also recorded: synergistically increases; also recorded: clear synergistic effect”. The same compound showed an EC50 with DENV-2 viral replicon [4] of 110 ± 30 µM. The entries for the “synergy/potentiation with 6-MMPR for reduction in ZIKV replication” value in the series on ZIKV, with ZIKV (listed as T-705) and in the series with ZIKV (listed as favipiravir) were “showed synergy”, “synergistic effect” and “synergistic antiviral effect”, respectively.

Consider `NC(=O)c1ncn([C@@H]2O[C@H](CO)[C@@H](O)[C@H]2O)c1O` [Compound 2b, 1-((2R,3R,4S,5R)-3,4-dihydroxy-5-(hydroxymethyl)tetrahydrofuran-2-yl)-5-hydroxy-1H-imidazole-4-carboxamide, reference compound], for which, in the series with DENV-2 viral replicon [5], the “TTI, tissue culture therapeutic index (CC50/EC50)” value came out at 2.2. The same compound had a CC50 in series [3] of 33 ± 12 µM. In the series on DENV-2 viral replicon [4], this compound showed an EC50 of 15 ± 7.8 µM.

In the series with DENV-2 viral replicon [4], `NC(=O)c1ncn([C@@H]2O[C@H](CO)[C@@H](O)[C@H]2O)n1` [Compound 1b, 1-((2R,3R,4S,5R)-3,4-dihydroxy-5-(hydroxymethyl)tetrahydrofuran-2-yl)-1H-1,2,4-triazole-3-carboxamide, reference compound] had an EC50 of 1.3 ± 0.1 µM.

As for `NC(=O)c1nccnc1O` [Compound 3a, 3-hydroxypyrazine-2-carboxamide], the “synergy/potentiation with 6-MMPR for reduction in DENV replication” value with DENV 2 was “synergistic effect”. Moreover, the entries for the “potentiation/synergy with 6-MMPR of anti-DENV activity” value in the series on DENV 2 and in the series with DENV 2 (listed as T-1105) were “strongly potentiates” and “synergistic effect”, respectively. For the same compound, the “times more active than nucleobase 5a (favipiravir)” value in the series on DENV-2 viral replicon [5] (DENV replicon) is 5. Besides, in the series with DENV-2 viral replicon [5], the “TTI, tissue culture therapeutic index (CC50/EC50)” value is given as 32. In addition, the “synergy with 6-MMPR for reduction” value in the series on DENV replicon (setting [6]) is “Stronger synergy”; with DENV replicon (combination with 6-MMPR (AM28), MacSynergy II, listed as T-1105), “synergistic effect”. The CC50 at 72 h in series [2] is greater than 665 µM. For the same compound, the CC50 in series [3] was greater than 665 µM. For the same compound, in the series on Huh-7 cells, the cellular toxicity entry was “absence of cellular toxicity”. For the same compound, the EC50 with DENV-2 viral replicon [4] came to 21 ± 0.7 µM; in the series on DENV it was 20 ± 11 µM. Further, the “synergy/potentiation with 6-MMPR for reduction in ZIKV replication” value with ZIKV is on record as “showed synergy”; in the series with ZIKV (listed as T-1105), “synergistic effect”.

With `NC(=O)c1nccn([C@@H]2O[C@H](CO)[C@@H](O)[C@H]2O)c1=O` [Compound 3b, 4-((2R,3R,4S,5R)-3,4-dihydroxy-5-(hydroxymethyl)tetrahydrofurran-2-yl)-3-oxo-3,4-dihydropyrazine-2-carboxamide], the “synergy/potentiation with 6-MMPR for reduction in DENV replication” value in the series on DENV 2 is on record as “almost entirely an additive result”; in the series on DENV 2 (listed as T-1106), “does not produce a synergistic effect”. Also, the “TTI, tissue culture therapeutic index (CC50/EC50)” value in the series with DENV-2 viral replicon [5] was 8.8. Moreover, the “synergy with 6-MMPR for reduction” value in the series with DENV replicon (setting [6]) is on record as “did not result in significant synergy”; in the series with DENV replicon (combination with 6-MMPR (AM28), MacSynergy II, listed as T-1106), “synergistic effect”. Further, the CC50 in series [3] was greater than 1000 µM. The EC50 in the series on DENV-2 viral replicon [4] is 113 ± 11 µM; in the series on DENV, 60 ± 22 µM. For the same compound, the “synergy/potentiation with 6-MMPR for reduction in ZIKV replication” value with ZIKV is “did not potentiate”; in the series with ZIKV (listed as T-1106), “does not produce a synergistic effect”.

For `Nc1nc(N)c2[nH]cnc2n1` [Compound 4a, 9H-purine-2,6-diamine], the CC50 in series [3] came out at 13 ± 2.1 µM.

As for `NC(=O)c1nc[nH]n1` [Compound 1a, 1H-1,2,4-triazole-3-carboxamide], the “TTI, tissue culture therapeutic index (CC50/EC50)” value in the series on DENV-2 viral replicon [5] amounted to 204. Besides, in the series with DENV replicon, the “antiviral activity of nucleobase alone” value is given as “no antiviral activity” and the “antiviral (anti-replicon) activity when supplemented with 6-MMPR” value is “an increase in antiviral activity was observed”. Moreover, the CC50 at 72 h in series [2] is greater than 665 µM. The same compound had a CC50 in series [3] greater than 1000 µM. In addition, the cytotoxicity entry in [3] (at 1000 μM) is reported as “did not show cytotoxicity”. For the same compound, in the series with DENV-2 viral replicon [4], a half-maximal response (EC50) required 4.9 ± 1.6 µM.

On to `CSc1ncnc2c1ncn2[C@@H]1O[C@H](CO)[C@@H](O)[C@H]1O` [Compound 6-MMPR, (2R,3S,4R,5R)-2-(hydroxymethyl)-5-(6-(methylthio)-9H-purin-9-yl)tetrahydrofuran-3,4-diol], for which the “antiviral activity of 6-MMPR alone” value with DENV replicon (0.01 μM, alone) is on record as “lack of antiviral activity”. In addition, the “potentiation of nucleobase anti-replicon activity” value in the series with DENV replicon (6-MMPR 0.0025 and 0.005 μM) is recorded as “did not potentiate nucleobase anti-replicon activity”. Also, the “anti-replicon activity of their own” value with DENV replicon (6-MMPR 0.0025 and 0.005 μM, alone) is given as “nor did they have anti-replicon activity of their own”.

With `COc1c(C)c2c(c(O)c1C/C=C(C)/C=C(\C)C(=O)O)C(=O)OC2` [Compound 6, (2E,4E)-6-(4-hydroxy-6-methoxy-7-methyl-3-oxo-1,3-dihydroisobenzofuran-5-yl)-2,4-dimethylhexa-2,4-dienoic acid, reference compound], the “TTI, tissue culture therapeutic index (CC50/EC50)” value in the series with DENV-2 viral replicon [5] stood at 4.7. The compound also returned a CC50 in series [3] of 1.4 ± 0.4 µM. The same compound yielded an EC50 with DENV-2 viral replicon [4] of 0.3 ± 0.03 µM.

With `NC(=O)c1nc[nH]c1O` [Compound 2a, 5-hydroxy-1H-imidazole-4-carboxamide], in the series with DENV-2 viral replicon [5], the “TTI, tissue culture therapeutic index (CC50/EC50)” value was found to be 9.6. In addition, in the series with DENV replicon, the “antiviral activity of nucleobase alone” value is on record as “no antiviral activity” and the “antiviral (anti-replicon) activity when supplemented with 6-MMPR” value is recorded as “an increase in antiviral activity was observed”. Further, in series [3], the CC50 was 23 ± 4.2 µM. In the series on DENV-2 viral replicon [4], the EC50 is 2.4 ± 0.1 µM.
